# Test results published in patent US4473578A, “β-Lactam antibiotics and their use” (Beecham Group Limited, priority 1979, dated 1984).
# Experiments:
# Experiment in all cases: Antibacterial effectiveness in agar
# Assay type in all cases: cell-based
# [1] = system: Pseudomonas aeruginosa W975; conditions: Pseudomonas aeruginosa, W975
# From the text: (§1) b. Antibacterial effectiveness of the compound of […]
# [2] = system: Klebsiella aerogenes Va2R+; conditions: Klebsiella aerogenes
# From the text: as §1
# Escherichia coli JT4R+ = system: Escherichia coli JT4R+
# From the text: as §1
# [3] = system: Staphylococcus aureus ME9+; conditions: Staphylococcus aureus
# From the text: as §1
# Proteus mirabilis T318 = conditions: Proteus mirabilis, T318
# From the text: as §1
# [4] = system: Pseudomonas aeruginosa NCTC 10662; conditions: Pseudomonas aeruginosa, NCTC10662
# From the text: as §1
# [5] = system: Streptococcus faecalis C90; conditions: Enterococcus faecalis, C90
# From the text: as §1
# Proteus morganii I = conditions: Morganella morganii
# From the text: as §1
# [6] = system: Citrobacter freundii T221; conditions: Citrobacter freundii, T221
# From the text: as §1
# [7] = system: Streptococcus faecalis T1101; conditions: Enterococcus faecalis, T1101
# From the text: as §1
# [8] = system: Bacteroides fragilis VP1 8249; conditions: Bacteroides fragilis, VP18249
# From the text: as §1
# Proteus vulgaris X = conditions: Proteus vulgaris
# From the text: as §1
# [9] = system: Escherichia coli NCTC 15418; conditions: Escherichia coli, NCTC15418
# From the text: as §1
# [10] = system: Bacteroides fragilis 2118; conditions: Bacteroides fragilis, 2118
# From the text: as §1
# Escherichia coli E8 = conditions: Escherichia coli, E8
# From the text: as §1
# Escherichia coli JT414C+ = conditions: Escherichia coli
# From the text: as §1
# Proteus morganii T361 = conditions: Morganella morganii, T361
# From the text: as §1
# Bacteroides fragilis WS1 = conditions: Bacteroides fragilis, WS1
# From the text: as §1
# [11] = system: Pseudomonas aeruginosa Dalgleish; conditions: Pseudomonas aeruginosa
# From the text: as §1
# [12] = system: Staphylococcus aureus ATCC 25923; conditions: Staphylococcus aureus, ATCC25923
# From the text: as §1
# Escherichia coli JT20R+ = system: Escherichia coli JT20R+
# From the text: as §1
# Proteus rettgeri R110 = conditions: Providencia rettgeri, R110
# From the text: as §1
# [13] = system: Klebsiella aerogenes I281; conditions: Klebsiella aerogenes, I281
# From the text: as §1
# Escherichia coli JT425C+ = conditions: Escherichia coli
# From the text: as §1
# [14] = system: Enterobacter cloacea NCTC 10005; conditions: Enterobacter, NCTC10005
# From the text: as §1
# Proteus mirabilis 889 = conditions: Proteus mirabilis, 889
# From the text: as §1
# Escherichia coli Ba78R+ = conditions: Escherichia coli
# From the text: as §1
# [15] = system: Serratia marcescens Wo146; conditions: Serratia marcescens, WO146
# From the text: as §1
# Serratia marcescens SM27 = conditions: Serratia marcescens, SM27
# From the text: as §1
# [16] = system: Enterbacter aerogenes NCTC 10006
# From the text: as §1
# [17] = system: Bacteroides fragilis BC16; conditions: Bacteroides fragilis, BC16
# From the text: as §1
# Escherichia coli JT1 = conditions: Escherichia coli, JT1
# From the text: as §1
# [18] = system: Enterbacter aerogenes T660
# From the text: as §1
# [19] = system: Klebsiella aerogenes T219; conditions: Klebsiella aerogenes, T219
# From the text: as §1
# [20] = system: Staphylococcus aureus Smith; conditions: Staphylococcus aureus
# From the text: as §1
# Citrobacter freundii W18 = conditions: Citrobacter freundii, W18
# From the text: as §1
# [21] = system: Klebsiella aerogenes R112; conditions: Klebsiella aerogenes, R112
# From the text: as §1
# Escherichia coli E96R+ = system: Escherichia coli E96R+
# From the text: as §1
# Proteus rettgeri I = conditions: Providencia rettgeri
# From the text: as §1
# [22] = system: Staphylococcus aureus T67+; conditions: Staphylococcus aureus
# From the text: as §1
# Bacteroides fragilis BC4 = conditions: Bacteroides fragilis, BC4
# From the text: as §1
# [23] = system: Staphylococcus aureus T150+; conditions: Staphylococcus aureus
# From the text: as §1
# [24] = system: Proteus vulgaris NCTC 4395; conditions: Proteus vulgaris, NCTC4395
# From the text: as §1
# [25] = system: Bacteroides fragilis WS12; conditions: Bacteroides fragilis, WS12
# From the text: as §1
# Escherichia coli 5 = conditions: Escherichia coli, 5
# From the text: as §1
# Bacteroides fragilis B3 = conditions: Bacteroides fragilis, B3
# From the text: as §1
# [26] = system: Enterobacter cloacea T749; conditions: Enterobacter, T749
# From the text: as §1
# [27] = system: Bacteroides fragilis WS41; conditions: Bacteroides fragilis, WS41
# From the text: as §1
smiles,measurement,setting,value
"CCSC1=C(C(=O)[O-])N2C(=O)[C@@H]([C@H](C)OS(=O)(=O)[O-])[C@H]2C1.[Na+].[Na+] [Example 14, Disodium (5R,6R)-3-ethylthio-6-[(S)-1-sulphonato-oxyethyl]-7-oxo-1-azabicyclo[3.2.0]hept-2-ene-2-carboxylate]",MIC,[1],100 µg/mL
same,MIC,[2],0.8 µg/mL
same,MIC,Escherichia coli JT4R+,0.4 µg/mL
same,MIC,[3],1.6 µg/mL
same,MIC,Proteus mirabilis T318,0.4 µg/mL
same,MIC,[4],50 µg/mL
same,MIC,[5],12.5 µg/mL
same,MIC,Proteus morganii I,0.4 µg/mL
same,MIC,[6],1.6 µg/mL
same,MIC,[7],12.5 µg/mL
same,MIC,[8],0.4 µg/mL
same,MIC,Proteus vulgaris X,0.4 µg/mL
same,MIC,[9],≤ 0.1 µg/mL
same,MIC,[10],0.2 µg/mL
same,MIC,Escherichia coli E8,≤ 0.1 µg/mL
same,MIC,Escherichia coli JT414C+,0.2 µg/mL
same,MIC,Proteus morganii T361,0.4 µg/mL
same,MIC,Bacteroides fragilis WS1,6.2 µg/mL
same,MIC,[11],50 µg/mL
same,MIC,[12],0.4 µg/mL
same,MIC,Escherichia coli JT20R+,0.8 µg/mL
same,MIC,Proteus rettgeri R110,0.2 µg/mL
same,MIC,[13],≤ 0.1 µg/mL
same,MIC,Escherichia coli JT425C+,≤ 0.1 µg/mL
same,MIC,[14],6.2 µg/mL
same,MIC,Proteus mirabilis 889,0.8 µg/mL
same,MIC,Escherichia coli Ba78R+,0.2 µg/mL
same,MIC,[15],1.6 µg/mL
same,MIC,Serratia marcescens SM27,0.4 µg/mL
same,MIC,[16],0.4 µg/mL
same,MIC,[17],1.6 µg/mL
same,MIC,Escherichia coli JT1,≤ 0.1 µg/mL
same,MIC,[18],0.2 µg/mL
same,MIC,[19],≤ 0.1 µg/mL
same,MIC,[20],0.4 µg/mL
same,MIC,Citrobacter freundii W18,1.6 µg/mL
same,MIC,[21],≤ 0.1 µg/mL
same,MIC,Escherichia coli E96R+,≤ 0.1 µg/mL
same,MIC,Proteus rettgeri I,0.4 µg/mL
same,MIC,[22],0.8 µg/mL
same,MIC,Bacteroides fragilis BC4,0.8 µg/mL
same,MIC,[23],0.4 µg/mL
same,MIC,[24],0.2 µg/mL
same,MIC,[25],0.2 µg/mL
same,MIC,Escherichia coli 5,≤ 0.1 µg/mL
same,MIC,Bacteroides fragilis B3,0.4 µg/mL
same,MIC,[26],6.2 µg/mL
same,MIC,[27],0.2 µg/mL
